Test results from article PMC8769378, “Underlining the Importance of Peripheral Protic Functional Groups to Enhance the Proton Exchange of Gd-Based MRI Contrast Agents” (Inorganic Chemistry, 2021).
Where two headings read alike, the source gives them in different places. Marks after values point to notes of the source that are not given here.

Columns and labels:
[1] = Acid-assisted dissociation kinetics of Gd^III complexes followed by ^1H NMR relaxometry; conditions: calculated from acid-assisted dissociation only, pH = 7.4, 298 K; comparators from literature constants
Source text: In order to investigate the kinetic inertness of the Gd^III complex, the dissociation reactions of GdL2 were followed by ^1H NMR relaxometry (21 MHz and 298 K) in the presence of large acid excess ([HCl] = 0.01–1.0 M) to guarantee the pseudo-first-order kinetic conditions.
The kinetic inertness of the GdL2 was characterized by the rates of the dissociation reactions taking place in 0.01–1.0 M HCl solution. The dissociation reactions of the GdL2 were followed by measuring the longitudinal relaxation time of H2O protons (T1) with a Stelar relaxometer connected to a Bruker WP80 NMR electromagnet adapted to variable-field measurements (15–80 MHz proton Larmor frequency). The temperature was controlled with a Stelar VTC-91 airflow heater equipped with a calibrated copper–constantan thermocouple (uncertainty of ±0.1 °C). Measures were carried out at 21 MHz and 25 °C. The longitudinal relaxation time (T1) was measured with the “inversion recovery” method (180° – τ – 90°) by using 16 different τ values with a typical 90° pulse width of 6.5 μs, 4 scans. The measurements were performed with a 1 mM solution of the GdL2 complex. The relaxivity values were given as r1 = 1/T1p + 1/T1w where T1p and T1w are the relaxation times of the bulk water protons in the presence and absence of GdL2. The pseudo-first-order rate constants (kd) were calculated by fitting the relaxation rate (r1 = 1/T1p) data to eq 4. […] 4 where rr and rv are the relaxivity values of the reactants and the product (Gd^3+: r1p = 12.85 (2) mM^–1 s^–1, 21 MHz, 25 °C) and rt is the measured relaxivity at reaction time t. The temperature was maintained at 25 °C, and the ionic strength of the solutions was kept constant at [H^+] ≤ 0.15 M, [HCl] + [NaCl] = 0.15 M. The calculation of the kinetic parameters was performed by the fitting of the absorbance–time and relaxation rate–time data pairs with the Micromath Scientist computer program (version 2.0, Salt Lake City, UT).
Kinetic inertness of GdL2
In order to investigate the kinetic inertness of GdL2, the dissociation reactions of GdL2 were followed
by 1H-NMR relaxometry in the presence of large acid excess ([HCl]= 0.01 – 1.0 M) to guarantee the
pseudo-first-order kinetic conditions. The R1obs values as a function of time for the dissociation
In the presence of HCl excess, the dissociation of GdL2 can be treated as a pseudo-first-order process
and the rate of the reaction can be expressed by Eq. (S7)
where kd is a pseudo-first-order rate constant, [GdL]t and [GdL]tot are the concentrations of the GdL
species at time t and the total concentration of the complex, respectively. The rates of the dissociation
reactions were determined at different concentrations of HCl ([HCl]=0.01 – 1.0 M).
The proton assisted dissociation
of GdL2 might occur by the equilibrium formation of a protonated *Gd(H2L2) intermediate (Eq.
(S8)), which dissociates spontaneously (Eq. (S9)).
Gd(HL2) + H Gd(H2L2) (S8)

[2] = cited from earlier work
[3] = Conditional stability constant pGd; format: physicochemical; conditions: pGd = −log[Gd]free, [Gd^3+] = 1 μM, [L] = 10 μM, pH = 7.4; calculated from the constants
[4] = cited from earlier work; remark: listed apart in the source
[5] = cited from earlier work; remark: listed apart in the source
[6] = cited from earlier work; remark: listed apart in the source
[7] = cited from earlier work; remark: listed apart in the source
[8] = cited from earlier work; remark: listed apart in the source
[9] = cited from earlier work; remark: listed apart in the source
[10] = cited from earlier work; remark: listed apart in the source
[11] = cited from earlier work; for ^298r1-60-MHz: 298 K; for ^310r1-60-MHz: 310 K
[12] = design: method as in PMID 34123071; conditions: 0.15 M NaCl, 298 K ref 7, cited from earlier work; for ^GdLH–1r1^is+os / ^GdLr1^is+os: 20 MHz
[13] = Longitudinal relaxivity r1 and relaxivity vs pH profiles; format: physicochemical; conditions: 21 MHz, 25 °C
Protocol: The longitudinal relaxivity values (r1) for GdL1 and GdL2, at 20 MHz (0.47 T), 298 K, and pH 7.4, are 4.7 and 5.1 mM^–1 s^–1, respectively. These are typical values of the clinical MRI contrast agents, i.e., low-molecular-weight q = 1 Gd^III chelates that tumble rapidly in solution.[1],[2] In particular, these values compare well with the r1 reported for GdHPDO3A[24] and other HPDO3A-like complexes such as GdHPDO3MA[25] or the series of Gd-hydroxypropylamide-DO3A (HPADO3A, Scheme 1)[7] complexes measured at the same experimental conditions.
At pH >3, the r1 values of GdL2 decrease with the increase of pH from 6.6 mM^–1 s^–1 to reach a plateau of 5.1 mM^–1 s^–1 around pH = 7.5. A further increase of the pH results in the slight increase of r1 reaching a maximum around pH = 9.5. Finally, at pH >9.5, another small decrease in r1 is observed. On the other hand, in the case of GdL1, the r1 values are independent from the pH in the range 4.0–7.5, whereas at pH >8.0, r1 increases up to 5.2 mM^–1 s^–1. The r1 values of GdL1 were measured in the pH range 4–10 in order to avoid the hydrolysis of the methyl ester. […] Then, the overall relaxivity, r1, is given by eq 1: [drawing 1] 1 where r1^is, r1^os, and r1^pr are the relaxivity components due to the inner and outersphere water molecules and the −OH group, respectively. r1^pr can be expressed as follows:[26]−[28] [drawing 2] 2
Proton relaxation measurements (1/T1) and the resulting 1/T1 NMRD profiles were measured on a fast-field cycling (FFC) Stelar SmarTracer relaxometer over a continuum of magnetic field strengths from 0.000 24 to 0.25 T (corresponding to 0.01–10 MHz proton Larmor frequencies). The relaxometer operates under computer control with an absolute uncertainty in 1/T1 of ±1%. […] Furthermore, the real temperature inside the probe head was additionally monitored by a Fluke 52 k/j digital thermometer (Fluke, Zürich, Switzerland). The gadolinium concentration was determined by measuring the bulk magnetic susceptibility shifts of the t-BuOH ^1H NMR signal. Additional data in the 20–120 MHz frequency range were obtained with a high field relaxometer (Stelar) equipped with the HTS-110 3T metrology cryogen-free superconducting magnet. […] The pH-dependent relaxivity measurements of GdL1 and GdL2 complexes were carried out by direct titration of the samples (GdL2, 3.0 < pH < 12.5; GdL1, 4 < pH < 10). The pH was adjusted by the stepwise addition of concentrated NaOH or HCl solution. Calculations were performed with the computer program Micromath Scientist, version 2.0 (Salt Lake City, UT).

[14] = design: method as in PMID 18963244, doi:10.1016/0020-1693(96)05094-3; conditions: cited from earlier work
[15] = 0.15 M NaCl, 25 °C ref [11] (SI)
[16] = 0.1 M Me4NCl, 25 °C ref [13], [14] (SI)
[17] = I = 0.1 M Me4NCl, 298 K ref 19, 20

O=C([O-])CN1CCN(CC(=O)[O-])CCN(C(CO)C(O)CO)CCN(CC(=O)[O-])CC1.[Gd+3] (stereo not drawn) [GdBT-DO3A]
kd at pH = 7.4 [1]: 1.35 × 10^–12 s^–1
k1 (acid-catalyzed dissociation rate constant) ([2]; 298 K ref 15): 2.8 × 10^–5 M^–1 s^–1

NC(=O)[C@H](O)CN1CCN(CC(=O)O)CCN(CC(=O)O)CCN(CC(=O)O)CC1 [HPADO3A]
pGd [3]: 16.88 ^h
Cu(L)H-1 (log K) [4, 15]: 10.55
CuH2L (log K) [4, 15]: 1.24
CuHL (log K) [4, 15]: 4.00
CuL (log K, stability constant) ([4]; I = 0.15 M NaCl, 298 K ref 7): 21.53
GdH2L (log K, *Gd(H2L) out-of-cage intermediate) [5, 15]: 5.72
GdL (log KGdL, stability constant) ([5]; I = 0.15 M NaCl, 298 K ref 7): 18.41
Ca(L)H-1 (log K) [6, 15]: 11.50
CaHL (log K) [6, 15]: 4.67
CaL (log K, stability constant) ([6]; I = 0.15 M NaCl, 298 K ref 7): 12.13
log K1^H ([7]; I = 0.15 M NaCl, 298 K ref 7): 8.96
log K2^H ([7]; I = 0.15 M NaCl, 298 K ref 7): 9.07
log K3^H ([7]; I = 0.15 M NaCl, 298 K ref 7): 4.22
log K4^H ([7]; I = 0.15 M NaCl, 298 K ref 7): 2.64
log K5^H ([7]; I = 0.15 M NaCl, 298 K ref 7): 1.25
Gd(L)H–1 (log KGd(L)H-1) ([8]; I = 0.15 M NaCl, 298 K ref 7): 6.73
Zn(L)H-1 (log K) [9, 15]: 10.79 (5)
ZnH2L (log K) [9, 15]: 2.87
ZnHL (log K) [9, 15]: 3.67
ZnL (log K, stability constant) ([9]; I = 0.15 M NaCl, 298 K ref 7): 17.18

CC(O)CN1CCN(CC(=O)O)CCN(CC(=O)O)CCN(CC(=O)O)CC1 (stereo not drawn) [HPDO3A, 10-(2-hydroxypropyl)-1,4,7,10-tetraazacyclododecane-1,4,7-triacetic acid]
pGd [3]: 18.16 ^h
CuH2L (log K) [4, 16]: 2.3
CuHL (log K) [4, 16]: 3.72
CuL (log K, stability constant) [4, 17]: 22.84
GdL (log KGdL, stability constant) [5, 17]: 23.8
GdH2L (log K, *Gd(H2L) out-of-cage intermediate) ([5]; footnote 0.15 M NaCl, 25 °C ref [13], [14] (SI)): 5.10
CaL (log K, stability constant) [6, 17]: 14.83
log K1^H [7, 17]: 11.96
log K2^H [7, 17]: 9.43
log K3^H [7, 17]: 4.30
log K4^H [7, 17]: 3.26
ZnHL (log K) [9, 16]: 3.7
ZnL (log K, stability constant) [9, 17]: 19.37

NC(=O)[C@H](O)CN1CCN(CC(=O)[O-])CCN(CC(=O)[O-])CCN(CC(=O)[O-])CC1.[Gd+3] [GdHPADO3A]
Δr1 (relaxivity increase) ([10]; from pH 7.4 to 5 ref 7): 5.5 mM^–1 s^–1
kd at pH = 7.4 [1]: 6.41 × 10^–12 s^–1
^298r1-60-MHz ([11]; 60 MHz ref 7): 3.6 mM^–1 s^–1
^310r1-60-MHz ([11]; 60 MHz ref 7): 2.9 mM^–1 s^–1
Δ^2 [11]: 8.5 10^19 s^–2
τR [11]: 62 ps
τv [11]: 14 ps
τR(SS) ([11]; determined for qSS = 2 and rSF = 3.5 Å ref 7): 13
τM ([11]; pH 7 ref 7): 20 ns
k1 (acid-catalyzed dissociation rate constant) ([2]; 298 K ref 7): 1.6 × 10^–4 M^–1 s^–1
kH × 10^–11 [12]: 2.1 M^–1 s^–1
^GdLH–1r1^is+os [12]: 4.32 mM^–1 s^–1
^GdLr1^is+os [12]: 4.57 mM^–1 s^–1

CC(O)CN1CCN(CC(=O)[O-])CCN(CC(=O)[O-])CCN(CC(=O)[O-])CC1.[Gd+3] (stereo not drawn) [GdHPDO3A]
Δr1 (base-catalyzed proton exchange contribution to r1) ([10]; pH > 10 ref 5): 1.2 mM^–1 s^–1
kd at pH = 7.4 [1]: 1.15 × 10^–11 s^–1
^298r1-60-MHz ([11]; 60 MHz ref 24): 4.2 mM^–1 s^–1
^310r1-60-MHz ([11]; 60 MHz ref 24): 3.2 mM^–1 s^–1
Δ^2 ([11]; SAP isomer ref 24): 9.9 10^19 s^–2
τM ([11]; SAP isomer ref 24): 640 ns
τv ([11]; SAP isomer ref 24): 8 ps
Δ^2 ([11]; TSAP isomer ref 24): 1.5 10^19 s^–2
τM ([11]; TSAP isomer ref 24): 8.5 ns
τv ([11]; TSAP isomer ref 24): 30 ps
τR [11]: 65 ps
k1 (acid-catalyzed dissociation rate constant) ([2]; 298 K ref 18): 2.9 × 10^–4 M^–1 s^–1
kOH × 10^–10 [12]: 1.0 M^–1 s^–1
^GdLH–1r1^is+os [12]: 4.54 mM^–1 s^–1
^GdLr1^is+os [12]: 4.28 mM^–1 s^–1

O=C([O-])CN1CCN(CC(=O)[O-])CCN(CC(=O)[O-])CCN(CC(=O)[O-])CC1.[Gd+3] [GdDOTA]
kd at pH = 7.4 [1]: 7.28 × 10^–14 s^–1
K^HGdL ([2]; 298 K ref 18): 14 M^–1
k1 (acid-catalyzed dissociation rate constant) ([2]; 298 K ref 18): 1.8 × 10^–6 M^–1 s^–1

[Gd+3] [Gd^3+]
r1p [13]: 12.85 (2) mM^–1 s^–1

O=C(O)CN1CCN(CC(=O)O)CCN(C(CO)C(O)CO)CCN(CC(=O)O)CC1 (stereo not drawn) [BT-DO3A]
pGd [3]: 15.63 ^h
log KNa(L) (stability of the Na^+ complex) [14]: 2.32
CuH2L (log K) ([4]; 0.1 M NaCl, 25 °C ref [5] (SI)): 2.4
CuHL (log K) ([4]; 0.1 M NaCl, 25 °C ref [5] (SI)): 3.8
CuL (log K, stability constant) ([4]; I = 0.1 M NaCl, 298 K ref 15): 19.1
GdL (log KGdL, stability constant) ([5]; I = 0.1 M NaCl, 298 K ref 15): 18.7
GdH2L (log K, *Gd(H2L) out-of-cage intermediate) ([5]; footnote 0.15 M NaCl, 25 °C ref [5] (SI)): 4.53
CaL (log K, stability constant) ([6]; I = 0.1 M NaCl, 298 K ref 15): 12.1
log K1^H ([7]; I = 0.1 M NaCl, 298 K ref 15): 9.46
log K2^H ([7]; I = 0.1 M NaCl, 298 K ref 15): 9.36
log K3^H ([7]; I = 0.1 M NaCl, 298 K ref 15): 4.17
log K4^H ([7]; I = 0.1 M NaCl, 298 K ref 15): 3.02
Gd(L)H–1 (log KGd(L)H-1) ([8]; I = 0.1 M NaCl, 298 K ref 15): 9.48
ZnHL (log K) ([9]; 0.1 M NaCl, 25 °C ref [5] (SI)): 4.3
ZnL (log K, stability constant) ([9]; I = 0.1 M NaCl, 298 K ref 15): 17.0

O=C(O)CN1CCN(CC(=O)O)CCN(CC(=O)O)CCN(CC(=O)O)CC1 [DOTA]
pGd [3]: 22.09 ^h
log KNa(L) (stability of the Na^+ complex) [14]: 4.38
GdL (log KGdL, stability constant) ([5]; I = 0.1 M NaCl, 298 K ref 22): 24.7
GdH2L (log K, *Gd(H2L) out-of-cage intermediate) ([5]; footnote 0.15 M NaCl, 25 °C ref [16] (SI)): 6.07
log K1^H ([7]; I = 0.1 M NaCl, 298 K ref 22): 9.37
log K2^H ([7]; I = 0.1 M NaCl, 298 K ref 22): 9.14
log K3^H ([7]; I = 0.1 M NaCl, 298 K ref 22): 4.63
log K4^H ([7]; I = 0.1 M NaCl, 298 K ref 22): 3.91
